According to PubChem BioAssay (NCI):
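Dose response: 5 concentrations. Exposure: 48 h. Format: 96-well plates. Endpoint: linear interpolation; highest concentration if not reached. The concentration for 50% growth inhibition is given as GI50. TGI: total growth inhibition.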

Key:
Assay in all cases: inhibition of tumour cell growth, NCI panel, 48 h
COLO 205 colon = tested on: COLO 205 colon
HOP-62 NSCLC = tested on: HOP-62 NSCLC
HOP-92 NSCLC = tested on: HOP-92 NSCLC
UACC-257 melanoma = tested on: UACC-257 melanoma
RXF 393 renal = tested on: RXF 393 renal
SW-620 colon = tested on: SW-620 colon
RPMI-8226 leukemia = tested on: RPMI-8226 leukemia
NCI-H23 lung = tested on: NCI-H23 lung
SK-MEL-5 melanoma = tested on: SK-MEL-5 melanoma
OVCAR-4 ovarian = tested on: OVCAR-4 ovarian

Cc1csc(Nc2nc(-c3cccc(Br)c3)nc(C(Cl)(Cl)Cl)n2)n1
GI50 (COLO 205 colon): 0.855 µM
TGI (COLO 205 colon): > 23.3 µM
GI50 (HOP-62 NSCLC): 2.21 µM
TGI (HOP-62 NSCLC): > 28.7 µM
GI50 (HOP-92 NSCLC): 1.1 µM
TGI (HOP-92 NSCLC): 6.16 µM
GI50 (UACC-257 melanoma): 3.34 µM
TGI (UACC-257 melanoma): > 100 µM
GI50 (RXF 393 renal): 1 µM
TGI (RXF 393 renal): 4.04 µM
GI50 (SW-620 colon): 3.29 µM
TGI (SW-620 colon): > 100 µM
GI50 (RPMI-8226 leukemia): 2.19 µM
TGI (RPMI-8226 leukemia): > 100 µM
GI50 (NCI-H23 lung): > 100 µM
TGI (NCI-H23 lung): > 100 µM
GI50 (SK-MEL-5 melanoma): > 100 µM
TGI (SK-MEL-5 melanoma): > 100 µM
GI50 (OVCAR-4 ovarian): > 100 µM
TGI (OVCAR-4 ovarian): > 100 µM

Ic1ccc(-n2nnnc2-c2cnoc2-c2ccccc2)cc1
GI50 (COLO 205 colon): > 59 µM
TGI (COLO 205 colon): > 100 µM
GI50 (HOP-62 NSCLC): 53.3 µM
TGI (HOP-62 NSCLC): > 100 µM
GI50 (HOP-92 NSCLC): 37.9 µM
TGI (HOP-92 NSCLC): > 100 µM
GI50 (UACC-257 melanoma): > 58.5 µM
TGI (UACC-257 melanoma): > 100 µM
GI50 (RXF 393 renal): 43.1 µM
TGI (RXF 393 renal): > 100 µM
GI50 (SW-620 colon): 39.6 µM
TGI (SW-620 colon): > 100 µM
GI50 (RPMI-8226 leukemia): 22.4 µM
TGI (RPMI-8226 leukemia): > 64 µM
GI50 (NCI-H23 lung): 35.4 µM
TGI (NCI-H23 lung): > 81 µM
GI50 (SK-MEL-5 melanoma): 25.7 µM
TGI (SK-MEL-5 melanoma): > 72.7 µM
GI50 (OVCAR-4 ovarian): > 64.2 µM
TGI (OVCAR-4 ovarian): > 100 µM

CS(=O)(=O)CCCn1c(=O)c(Oc2ccc(F)cc2F)cc2cnc(NC3CCOCC3)nc21
GI50 (COLO 205 colon): > 25 µM
TGI (COLO 205 colon): > 25 µM
GI50 (HOP-62 NSCLC): > 25 µM
TGI (HOP-62 NSCLC): > 25 µM
GI50 (HOP-92 NSCLC): > 25 µM
TGI (HOP-92 NSCLC): > 25 µM
GI50 (UACC-257 melanoma): > 25 µM
TGI (UACC-257 melanoma): > 25 µM
GI50 (RXF 393 renal): > 25 µM
TGI (RXF 393 renal): > 25 µM
GI50 (SW-620 colon): > 25 µM
TGI (SW-620 colon): > 25 µM
GI50 (RPMI-8226 leukemia): > 25 µM
TGI (RPMI-8226 leukemia): > 25 µM
GI50 (NCI-H23 lung): > 25 µM
TGI (NCI-H23 lung): > 25 µM
GI50 (SK-MEL-5 melanoma): > 25 µM
TGI (SK-MEL-5 melanoma): > 25 µM
GI50 (OVCAR-4 ovarian): > 25 µM
TGI (OVCAR-4 ovarian): > 25 µM

COc1cc(C2c3cc4c(cc3C(O)C(CO)C2CO)OCO4)cc(OC)c1OC (stereo not given)
GI50 (COLO 205 colon): 0.725 µM
TGI (COLO 205 colon): 5.76 µM
GI50 (HOP-62 NSCLC): 1.47 µM
TGI (HOP-62 NSCLC): > 100 µM
GI50 (HOP-92 NSCLC): > 100 µM
TGI (HOP-92 NSCLC): > 100 µM
GI50 (UACC-257 melanoma): 0.67 µM
TGI (UACC-257 melanoma): > 100 µM
GI50 (RXF 393 renal): 1.12 µM
TGI (RXF 393 renal): > 100 µM
GI50 (SW-620 colon): 0.37 µM
TGI (SW-620 colon): > 100 µM
GI50 (RPMI-8226 leukemia): 1.59 µM
TGI (RPMI-8226 leukemia): > 100 µM
GI50 (NCI-H23 lung): 4.21 µM
TGI (NCI-H23 lung): > 100 µM
GI50 (SK-MEL-5 melanoma): 0.636 µM
TGI (SK-MEL-5 melanoma): > 72 µM
GI50 (OVCAR-4 ovarian): 7.6 µM
TGI (OVCAR-4 ovarian): > 100 µM

O=c1[nH]c(=O)n(C2CC(O)C(CO)O2)cc1CO (stereo not given)
GI50 (COLO 205 colon): > 100 µM
TGI (COLO 205 colon): > 100 µM
GI50 (HOP-62 NSCLC): > 100 µM
TGI (HOP-62 NSCLC): > 100 µM
GI50 (HOP-92 NSCLC): 43.3 µM
TGI (HOP-92 NSCLC): > 100 µM
GI50 (UACC-257 melanoma): > 100 µM
TGI (UACC-257 melanoma): > 100 µM
GI50 (RXF 393 renal): > 100 µM
TGI (RXF 393 renal): > 100 µM
GI50 (SW-620 colon): > 100 µM
TGI (SW-620 colon): > 100 µM
GI50 (RPMI-8226 leukemia): > 100 µM
TGI (RPMI-8226 leukemia): > 100 µM
GI50 (NCI-H23 lung): 31 µM
TGI (NCI-H23 lung): > 100 µM
GI50 (SK-MEL-5 melanoma): > 100 µM
TGI (SK-MEL-5 melanoma): > 100 µM
GI50 (OVCAR-4 ovarian): > 100 µM
TGI (OVCAR-4 ovarian): > 100 µM

Cc1ccc(-c2nc3ccc([N+](=O)[O-])cc3[nH]2)cc1
TGI (COLO 205 colon): > 100 µM
TGI (HOP-62 NSCLC): > 100 µM
TGI (HOP-92 NSCLC): > 100 µM
TGI (UACC-257 melanoma): > 100 µM
TGI (RXF 393 renal): > 100 µM
TGI (SW-620 colon): > 100 µM
TGI (RPMI-8226 leukemia): > 100 µM
TGI (NCI-H23 lung): > 100 µM
TGI (SK-MEL-5 melanoma): > 100 µM
TGI (OVCAR-4 ovarian): > 100 µM

Cc1ccc(/C=C/c2c(C(=O)/C=C/c3ccc(C(F)(F)F)cc3)c(C)nc3ccccc23)cc1
GI50 (COLO 205 colon): 2.21 µM
TGI (COLO 205 colon): 5.29 µM
GI50 (HOP-62 NSCLC): 1.88 µM
TGI (HOP-62 NSCLC): 3.73 µM
GI50 (HOP-92 NSCLC): 1.43 µM
TGI (HOP-92 NSCLC): 2.98 µM
GI50 (UACC-257 melanoma): 2.15 µM
TGI (UACC-257 melanoma): 4.95 µM
GI50 (RXF 393 renal): 1.12 µM
TGI (RXF 393 renal): 2.41 µM
GI50 (SW-620 colon): 1.29 µM
TGI (SW-620 colon): 4.38 µM
GI50 (RPMI-8226 leukemia): 0.46 µM
TGI (RPMI-8226 leukemia): 2.92 µM
GI50 (NCI-H23 lung): 1.29 µM
TGI (NCI-H23 lung): 3.13 µM
GI50 (SK-MEL-5 melanoma): 1.54 µM
TGI (SK-MEL-5 melanoma): 2.87 µM
GI50 (OVCAR-4 ovarian): 1.61 µM
TGI (OVCAR-4 ovarian): 3.37 µM

CC(C)=CCc1cc(O)cc2c1OC(C=C(C)C)C1=C2C(=O)C2=C(NCCS2(=O)=O)C1=O (stereo not given)
GI50 (COLO 205 colon): 2.67 µM
TGI (COLO 205 colon): 5.57 µM
GI50 (HOP-62 NSCLC): 3.01 µM
TGI (HOP-62 NSCLC): 5.94 µM
GI50 (HOP-92 NSCLC): 5.73 µM
TGI (HOP-92 NSCLC): 15.9 µM
GI50 (UACC-257 melanoma): 2.3 µM
TGI (UACC-257 melanoma): 4.61 µM
GI50 (RXF 393 renal): 2.15 µM
TGI (RXF 393 renal): 4.7 µM
GI50 (SW-620 colon): 2.32 µM
TGI (SW-620 colon): 5.78 µM
GI50 (RPMI-8226 leukemia): 4.42 µM
TGI (RPMI-8226 leukemia): 14 µM
GI50 (NCI-H23 lung): 1.91 µM
TGI (NCI-H23 lung): 6.53 µM
GI50 (SK-MEL-5 melanoma): 0.751 µM
TGI (SK-MEL-5 melanoma): 2.88 µM
GI50 (OVCAR-4 ovarian): 0.811 µM
TGI (OVCAR-4 ovarian): 3.06 µM

Cc1nc2cnc(N)c(C#Cc3cncc(C(=O)Nc4ccc(CN5CCN(C)CC5)c(C(F)(F)F)c4)c3)c2nc1C
GI50 (COLO 205 colon): 0.0558 µM
TGI (COLO 205 colon): 0.634 µM
GI50 (HOP-62 NSCLC): 0.738 µM
TGI (HOP-62 NSCLC): 10.2 µM
GI50 (HOP-92 NSCLC): 0.0646 µM
TGI (HOP-92 NSCLC): 0.566 µM
GI50 (UACC-257 melanoma): 0.189 µM
TGI (UACC-257 melanoma): 1.74 µM
GI50 (RXF 393 renal): 0.515 µM
TGI (RXF 393 renal): 1.93 µM
GI50 (SW-620 colon): 0.279 µM
TGI (SW-620 colon): 3.21 µM
GI50 (RPMI-8226 leukemia): 1.65 µM
TGI (RPMI-8226 leukemia): 8.51 µM
GI50 (NCI-H23 lung): 0.342 µM
TGI (NCI-H23 lung): 8.67 µM
GI50 (SK-MEL-5 melanoma): 0.748 µM
TGI (SK-MEL-5 melanoma): 6.07 µM
GI50 (OVCAR-4 ovarian): 0.119 µM
TGI (OVCAR-4 ovarian): 6.17 µM
